Assay results from patent US12030876B2, “Aryl hydrocarbon receptor (AHR) agonists and uses thereof” (Ikena Oncology, Inc., priority 2019, dated 2024).

How the values were obtained:
[1] = tested on: DSS model of Inflammatory Bowel Disease (IBD); design: species or system C57Bl/6 mice; conditions: mouse
[2] = tested on: DSS model of Inflammatory Bowel Disease (IBD); type: in vivo, C57Bl/6 mice; conditions: DSS model
Method: On study day −1, C57Bl/6 mice are weighed and randomized into treatment groups based on body weight. On study day 0, treatment groups are given 2.5% DSS in drinking water and treatment is initiated on the same day, with either vehicle or AHR agonist compound(s). On study day 7, DSS drinking water is replaced with normal drinking water for the remainder of the study. Body weight is measured daily during the entire study. On study day 10, animals are anesthetized with Isoflurane and bled to exsanguination followed by cervical dislocation. The entire colon is removed and measured for length, weight, and weight per length. Overall efficacy of test AR agonist compounds is based on body weight, colon length, and colon histopathology. Histopathology data is assessed for appropriate parameters, as determined by a pathologist and the parameters for these DSS studies can include inflammation, erosion, gland loss, edema, hyperplasia, neutrophil count, mucosal thickening, lymphoid aggregate count and lymphoid aggregate size. The different parameter scores can be added for a summed score for the study histopathology.

[3] = tested on: T-cell transfer IBD model; type: in vivo, SCID mice
Method: On study day 0, donor Balb/C mice are terminated, and spleens obtained for CD4+CD45RB^high cell isolation (Using a SCID IBD Cell Separation Protocol). After cells have been sorted and obtained, each recipient SCID animal receives an IP injection of, at a minimum, 4×10^5 cells (200 μl/mouse injections). Also on study day 0, SCID mice are weighed and randomized into treatment groups based on body weight. On study day 14, AHR agonist compound treatments are initiated and dosed orally daily; the control group receiving anti-IL12 (0.5 mg/mouse) is dosed IP once a week. On study day 49, animals are anesthetized with Isoflurane and bled to exsanguination followed by cervical dislocation. The entire colon is removed, measured, and weighed. Overall efficacy of AHR agonist compounds are based on a ratio of colon weight to length, and colon histopathology and colon cytokines (Th17 panel).

Cyp1a1 gene expression = tested on: Cyp1a1 gene expression; design: species or system C57BL/6N mice; conditions: mouse, in vivo
Method: C57BL/6N mice are weighed and randomized into treatment groups with group size of 3-5 mice. On study Day 1, treatment is initiated and necropsies follow on day 1 at 4 and 12 hours post-dose and on Day 2, 24 hours post-dose. On Day 1, mice are dosed orally with one dose of the AHR agonist compound(s) that are in a suspension and mixed well before dosing. At the designated time, animals are euthanized and plasma and tissue taken for compound levels (PK) and compound effect (PD) on gene expression. Liver samples and proximal colon are weighed and then frozen for subsequent RNA extraction and RT-PCR analysis. AHR activation is determined by measuring Cyp1a1 gene expression relative to a housekeeping gene, such as GAPDH or HPRT. Cyp1a1 expression levels in the liver are compared to Cyp1a1 levels in the colon to determine a colon:liver ratio to determine the level of GI preferred AHR activation.

[4] = tested on: naive CD62L+ human T-Cells; assay: Th17 assay; type: cell-based; conditions: FIG. 16
Method: On Day 1, naive CD62L+ human T-Cells were plated in a 96 well plate (25,000 cells in 200 uL media). Cells were activated with human CD3/CD28 tetramer (12.5 μL/1×10^6 cells) and differentiated with human Th17 cytokines (50 ng/mL IL-6, 20 ng/mL IL-1 beta, 10 ng/mL IL-23, 1 ng/mL TGF-beta, 12 μg/mL anti-human IFN-γ antibody and 10 μg/mL anti-human TL-4 antibody) for 10 days. Media containing cytokine cocktail and CD3/CD28 was refreshed every 2-3 days. On Day 10, cell supernatant was collected and frozen for cytokine analysis. Cells were stimulated with 1× Cell Stimulation Cocktail (PMA and Ionomycin) for 5 hours. After 5 hours of stimulation, cells were stained for intracellular cytokines (human CD4, IL-17A, IL-22). Samples were run on BD LSR FORTESSA and analyzed in FLOWJO software.

[5] = tested on: human Crohn's and ulcerative colitis tissue cultures
[6] = tested on: human regulatory T cells (Tregs); assay: Treg assay (human); type: cell-based; conditions: compound present during induction of Tregs, in vitro; FIG. 15
Method: On day 0, naïve T cells from cryopreserved human derived PBMCs were isolated. These cells were plated in 48 well plate at 500,000 cells/mL concentration with human CD3/CD28 activation tetramer (12.5 μL/1×10^6 cells) and differentiated into regulatory T cells (Tregs) with 1 ng/mL […] and 5 ng/mL human recombinant TL-2 in the presence of DMSO or different concentrations of AHR agonist compounds.
On day 5, the Tregs were counted and washed. CD25− Effector T cells (Teffs) were isolated from the same human donor and were labeled with Cell Trace Violet. The Tregs and Teffs were cocultured for 4 days in 96 well plate at 1:2 or 1:1 ratio with human CD3/CD28 tetramer (12.5 μL/1×10^6 cells).
At the end of a 4 day co-culture, the cells were washed and stained with LiveDead stain. They were run on flow cytometer and analyzed using FLOWJO software.

[7] = T-cell transfer IBD model, FIG. 9

SMILES | in vivo AHR activation by expression of Cyp1a1 in the colon [1] | inflammation and erosion (histopathology) ([2]; relative to vehicle control, FIG. 6, FIG. 19) | colon length ([2]; FIG. 5) | content score ([2]; FIG. 5) | cytokine activity: IFN-γ, IL-1β, and MIP-3α/CCL20 ([3]; T-cell transfer IBD model, colon cytokines, FIG. 11) | cytokine activity: GM-CSF and IL-6 ([3]; T-cell transfer IBD model, colon cytokines, FIG. 12) | cytokine activity: IL-17/IL-25 and TNF-α ([3]; T-cell transfer IBD model, colon cytokines, FIG. 13) | body weight [3, 7] | colon weight [3, 7] | reduction in colon weight compared to vehicle [3, 7] [%] | reduction in colon weight per length compared to vehicle [3, 7] [%] | inflammation ([3]; T-cell transfer IBD model, FIG. 10) | in vivo AHR activation by expression of Cyp1a1 in the colon ([3]; mouse, in vivo) | Cyp1a1 induction in the colon (Cyp1a1 gene expression) | IL-17A+ human T-cells ([4]; Th17 polarizing conditions) | IL-22+ human T-cells ([4]; Th17 polarizing conditions) | human Th17 cell differentiation ([4]; in vitro) | cytokine release: IFN-γ, IL-17A, IL-1β, and TNF-α [5] | suppressive functions of human Tregs [6]
FC(F)(F)c1cccc(Nc2nc(-c3cccc(Cl)c3)cs2)c1 [Compound P-2] | confirmed | minimal inflammation and mild erosion | increased colon length | improved content score | significant reduction | significant reduction | reduction | increased body weight | decreased colon weight | 54 | 54 | significant reduction | confirmed |  |  |  |  |  | 
Nc1cccc(-c2csc(Nc3cccc(C(F)(F)F)c3)n2)c1 [I-10] |  |  |  |  |  |  |  |  |  |  |  |  |  | comparable | decreases | increases | modulates | decreases | increases suppressive functions
